Reference: patent US9028887B2, “Method improve spatial memory via pterostilbene administration” (The United States of America, as represented by the …, priority 2007, dated 2015)

How the values were obtained:
[1] = system: M1-transfected COS-7 cells; experiment: Calcium recovery in M1-transfected COS-7 cells after dopamine treatment and oxotremorine-induced depolarization; format: cell-based, African green monkey; conditions: 10 μg/ml pre-treatment 45 min, then 1 mM dopamine 4 hours; 750 μM oxotremorine depolarization
Method: COS-7 cells, a cell line derived from African green monkey kidney, were grown in Dulbecco's Modified Eagle's Medium (D-MEM) supplemented with 10% fetal bovine serum (FBS) and containing 100 U/ml penicillin and 100 μg/ml streptomycin sulfate. Twenty four hours prior to transfection, cells were harvested with trypsin, counted, and plated on […] tissue culture plates at 5×10^6 cells/plate. Cells were transiently transfected with rat muscarinic receptor subtype 1 DNA by the DEAE-dextran method. After transfection, cells were incubated 2.5 hours in growth medium containing 80 μM chloroquine to minimize degradation of the DNA. Transfected cells were then maintained in growth medium for 48 hours, harvested with trypsin, plated to coverslips in 35 mm plates for calcium imaging, and incubated overnight.
Dis. 6:403-411, and hereby incorporated by reference. The BB extract and stilbenes were dissolved in growth media and cells were subsequently incubated for 45 minutes at 37° C. with the treated growth medium, followed by dopamine administration for 4 hours. Following these incubations, the cells were washed three times with extract-free growth medium prior to testing.
Calcium imaging was carried out using a Medical Systems Corp. open perfusion micro-incubator (37° C.) with temperature control that was mounted on the stage of a Nikon Eclipse TE200U microscope and illuminated with a fluorescent light source. Transfected cells were loaded with Fura-2/acetoxymethyl ester (2 μM) in loading medium (99% DMEM 1% FES) for 40 minutes at 37° C. with 5% CO2.
Real time analyses of calcium flux prior to and following 750 μM oxotremorine-induced depolarization were then carried out using Simple PCI software (Compix, Inc. Mars, Pa.). Response and recovery were then determined for each sample. […] Recovery was determined by assessing the time (within 300 sec) for the Ca^2+ levels to return to 20% of the increase following depolarization in the cells that responded. Data was analyzed by Kruskal-Wallis one-way analysis of variance and Mann-Whitney U tests.

[2] = Pterostilbene in subject hippocampal tissue by GC-MS; format: in vivo, rat
Method: Hippocampal brain tissue was extracted from subjects that were euthanized 2-3 weeks following Morris Water Maze testing. The tissue samples were stored at −80° C. and thawed in ice prior to extraction. Tissues were homogenized in 500 μL of phosphate buffer (pH 7.4) then centrifuged (7000 g, 4° C., 15 min). The supernatant was collected and homogenization was repeated. The combined supernatant was extracted with ethyl acetate (500 μL×2). The ethyl acetate extract was dried under a stream of nitrogen.
The dried extract was treated with 30 μL of N,O-bis[trimethylsilyl]trifluoroacetamide:dimethylformamide (BSTFA:DMF, 1:1; Pierce Biotechnology, Inc., Rockford, Ill.) and heated at 70° C. for 40 min. The derivatized sample was used for analysis of pterostilbene by gas chromatography-mass spectrometry (GC-MS). GC-MS was performed on a JEOL GCMate II Instrument (JEOL USA Inc., Peabody, Mass.) using as a J&W DB-5 capillary column (0.25 mm internal diameter, 0.25 μm film thickness, 30 m length; Agilent Technologies, Foster City, Calif.). […] The carrier gas was ultrahigh purity helium, at 1 mL/min flow rate. […] Pterostilbene was determined and quantified from a reconstructed ion chromatogram using m/z 328, 313, 297 and 147. Quantitation was performed from calibration curve of a standard sample of pterostilbene (retention time, 12.5 min). […]

cyclooxygenase-2 = biological target: T1, cyclooxygenase-2 (Homo sapiens, UniProt P35354); conditions: Rimando et al., 2002; cited from earlier work
T1 sequence (P35354 18-604): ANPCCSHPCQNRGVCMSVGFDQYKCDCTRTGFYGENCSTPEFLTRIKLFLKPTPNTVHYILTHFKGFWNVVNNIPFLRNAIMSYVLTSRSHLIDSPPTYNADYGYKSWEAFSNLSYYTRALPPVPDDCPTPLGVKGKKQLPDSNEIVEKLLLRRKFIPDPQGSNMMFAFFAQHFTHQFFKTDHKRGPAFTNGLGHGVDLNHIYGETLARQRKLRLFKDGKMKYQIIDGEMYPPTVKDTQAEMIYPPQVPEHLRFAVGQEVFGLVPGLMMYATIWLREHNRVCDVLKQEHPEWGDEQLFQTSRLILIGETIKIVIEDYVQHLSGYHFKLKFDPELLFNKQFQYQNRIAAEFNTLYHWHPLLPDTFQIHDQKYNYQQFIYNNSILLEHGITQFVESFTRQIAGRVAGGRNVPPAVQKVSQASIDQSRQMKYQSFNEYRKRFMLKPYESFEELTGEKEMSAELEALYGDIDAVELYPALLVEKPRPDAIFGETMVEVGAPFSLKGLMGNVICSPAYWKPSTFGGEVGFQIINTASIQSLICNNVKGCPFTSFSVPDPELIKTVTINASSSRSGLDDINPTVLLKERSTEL

[3] = biological target: T2, peroxisome proliferator-activated alpha isoform, (PPARα) (Homo sapiens, UniProt Q07869); conditions: Rimando et al., 2005; cited from earlier work
T2 sequence (Q07869 1-468): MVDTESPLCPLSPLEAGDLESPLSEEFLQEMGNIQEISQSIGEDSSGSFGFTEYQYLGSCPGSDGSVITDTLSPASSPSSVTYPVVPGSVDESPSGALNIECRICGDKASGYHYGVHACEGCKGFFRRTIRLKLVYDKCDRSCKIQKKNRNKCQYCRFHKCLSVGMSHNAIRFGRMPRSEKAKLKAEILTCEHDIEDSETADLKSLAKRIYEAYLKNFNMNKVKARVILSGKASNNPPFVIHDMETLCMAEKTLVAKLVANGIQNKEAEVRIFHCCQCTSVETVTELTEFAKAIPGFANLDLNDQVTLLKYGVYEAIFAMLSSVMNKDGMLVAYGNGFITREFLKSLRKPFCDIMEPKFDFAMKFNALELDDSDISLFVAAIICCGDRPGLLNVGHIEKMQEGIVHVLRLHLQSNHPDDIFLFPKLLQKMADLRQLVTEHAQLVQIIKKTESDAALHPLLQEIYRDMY

[4] = system: inducible nitric oxide synthase (iNOS); conditions: HT-29 human adenocarcinoma cell lines; Suh et al., 2007; cited from earlier work
[5] = compared with resveratrol; Rimando et al., 2002; Stivala et al., 2001; cited from earlier work

hippocampal pterostilbene ([2]; high dose diet 0.016% (10 mg/kg), 12-13 weeks on diet): 1.352±0.465 ng/tissue sample
SMILES: COc1cc(/C=C/c2ccc(O)cc2)cc(OC)c1 [pterostilbene, trans-3,5-dimethoxy-4′-hydroxystilbene]
protection against dopamine-induced decreases in Ca2+ Recovery [1]: protected against the dopamine-induced decreases in Recovery
hippocampal pterostilbene detectability ([2]; low dose diet 0.004% (2.5 mg/kg)): only detectable in the high dose pterostilbene group
inhibition of cyclooxygenase-2 (cyclooxygenase-2): weak inhibition
activation of PPARα [3]: identified to activate
expression of iNOS [4]: inhibits the expression of inducible nitric oxide synthase (iNOS)
antioxidant activity [5]: antioxidant activity similar to that of resveratrol
